Test results: patent US7119063B2, “Memory-enhancing peptides and the use thereof” (Shanghai Cas Intide Biotech Co., Ltd., priority 2000, dated 2006)

System: learning and memory process of mouse
Assay: platform-jumping electrical-shock avoidance test, learning and 24 h memory, scopolamine-induced impediment
Assay type: in vivo
Conditions: for Memory Results EN / Memory Results RT / Learning Results EN / Learning Results RT: scopolamine 1 mg/kg; for Memory Results EN / Memory Results RT: memory test 24 hrs later; for Learning Results EN / Learning Results RT: training trial
Method: The pharmacological tests of memory-enhancing peptide in this invention have been performed as following: the animals have been divided into three groups: drug administration group, control group and model group, with each group administrated with memory-enhancing peptide, saline and scopolamine respectively. In the test, the groups except control group were injected with scopolamine after the administration of medicine about 50 min., 10 min. later, the training began. First, the animals will be put into reaction box for 3 min. before each trails to familiarize them with the environment. Then, the reaction box are charged with 36V alternating current. When the animal subjects to electrical shock, it will jump up to the central platform to avoid harmful stimulation as a normal response. Most of animals may be return to the copper curdles twice or even more times, but they will jump back to the platform swiftly as the results of electrical shock. Each test trail will be performed for 5 min. and two following indices will be used to represent the learning results: (I) the number of total error (EN) during the whole training period; (2) the reaction time (RT) for the first returning to the copper curdle in the trail. The trails will repeat again 24 hrs later as memory test.

Compound | effect on memory and learning impediment induced by scopolamine, compared with model group (0.5 μg and 1 μg/kg, longer incubation period and lesser error numbers, P<0.01) | effect on memory and learning impediment induced by scopolamine, compared with Huperzine A (100 μg/kg) (0.5 μg/kg and 1 μg/kg) | Memory Results EN (drug 0.25 μg/kg) | Memory Results RT (drug 0.25 μg/kg) [s] | Learning Results EN (drug 0.25 μg/kg) | Learning Results RT (drug 0.25 μg/kg) [s] | Memory Results EN (drug 0.5 μg/kg) | Memory Results RT (drug 0.5 μg/kg) [s] | Learning Results EN (drug 0.5 μg/kg) | Learning Results RT (drug 0.5 μg/kg) [s] | Memory Results EN (drug 1 μg/kg) | Memory Results RT (drug 1 μg/kg) [s] | Learning Results EN (drug 1 μg/kg) | Learning Results RT (drug 1 μg/kg) [s] | effect on memory and learning impediment induced by scopolamine (summary of Table 1) (mouse, in vivo) | Memory Results EN (drug 100 μg/kg) | Memory Results RT (drug 100 μg/kg) [s] | Learning Results EN (drug 100 μg/kg, number of total errors) | Learning Results RT (drug 100 μg/kg, reaction time for first return to the copper curdle) [s]
PyroGlu-Asn-Cys(S-Bu^t)-Pro-Arg [MEP-531] | obviously improve | better effects than Huperzine A | 0.9 | 197.6 | 0.3 | 78.8 | 0.5 | 245.5 | 0.2 | 241.6 | 0.3 | 282.8 | 0.3 | 267.6 | remarkably ameliorate | – | – | – | –
C/C=C1\[C@H]2C=C(C)C[C@]1(N)c1ccc(=O)[nH]c1C2 [Huperzine A, reference compound] | – | – | – | – | – | – | – | – | – | – | – | – | – | – | – | 0.9 | 231.9 | 1.3 | 120.5
